Test results published in ChEMBL document CHEMBL3763083, “Sulfasalazine in ionic liquid form with improved solubility and exposure” (Medchemcomm, 2015).
Values after ≈ are worked out from the molar mass of the structure shown.

Legend:
[1] = Solubility of compound in phosphate buffer at pH 8 after 1 hr by LC/MS analysis; format: physicochemical; details: pH 8, 1 h
[2] = Thermal stability of compound after 30 mins by thermogravimetric analysis; format: physicochemical; details: 0.5 h
[3] = Solubility of compound in methanol after 2 hrs; format: physicochemical
[4] = Solubility of compound in stimulated intestinal fluid at pH 6.8 measured at 0.5 to 3 hrs by LC/MS analysis; format: ADME; details: simulated gi fluid
Liver = test: Drug metabolism in rat liver S9 fractions at 1 uM measured at 0 to 60 mins by LC/MS analysis; format: ADME, subcellular, Liver S9 fraction; details: s9, 1 µM
[5] = Solubility of compound in saline solution after 1 hr by LC/MS analysis; format: physicochemical; details: buffer
[6] = Solubility of compound in stimulated GI fluid at pH 1.1 measured at 15 to 60 mins by LC/MS analysis; format: ADME; details: buffer
[7] = Oral bioavailability in rat plasma at 50 mg/kg dosed via gavage; format: ADME, organism-based
[8] = AUC(infinity) in rat at 50 mg/kg dosed via oral gavage; format: ADME, organism-based; set-up: dose 50 mg/kg, route oral, time infinity; details: in vivo
[9] = Tmax in rat plasma at 50 mg/kg dosed via oral gavage; format: ADME, organism-based
[10] = Drug recovery in rat bile at 50 mg/kg dosed via oral gavage; format: ADME, organism-based; details: read-out: Drug recovery
[11] = Cmax in rat plasma at 50 mg/kg dosed via oral gavage; format: ADME, organism-based; set-up: dose 50 mg/kg, route oral

| Compound | solubility [1] | T [2] | solubility [3] | solubility [4] | Drug metabolism (Liver) | solubility [5] | solubility [6] | bioavailability [7] | AUC(0-inf) [8] | Tmax [9] | dose excreted [10] | Cmax [11] |
| --- | --- | --- | --- | --- | --- | --- | --- | --- | --- | --- | --- | --- |
| O=C(O)c1cc(/N=N/c2ccc(S(=O)(=O)Nc3ccccn3)cc2)ccc1O [SULFASALAZINE] | 3090 µg/mL (≈ 7.76 mM) | 253 °C | soluble | soluble | metabolite_detected | 10 µg/mL (≈ 0.0251 mM) | soluble | – | – | – | – | – |
| C[N+](C)(C)CCO.O=C([O-])c1cc(/N=N/c2ccc(S(=O)(=O)Nc3ccccn3)cc2)ccc1O | – | 214 °C | – | soluble | metabolite_detected | 39320 µg/mL | soluble | 5.6% | 9.34 µM·h | 15 min | 1.8% | 2360 nM |
